Reference: publication PMC10683028 (Journal of Medicinal Chemistry, 2023)
Values after ≈ are worked out from the molar mass of the structure shown.

Key:
[1] = in vitro; details: PAMPA, pH 7.4
Method: (§1) In vitro ADME experiments were performed exactly as reported.[38]−[40]

[2] = physchem; details: aqueous medium at pH 7.4, pH 7.4
Method: as §1

[3] = pH 7.4
Method: Test compounds were prepared as 0.5 mM solutions in 50:50 acetonitrile:water and analyzed by reversed-phase HPLC-UV (wavelength 254 nm) using a Phenomenex Luna C18 100 Å 150 × 4.6 mm 5 μm column with a gradient of aqueous phase (50 mM ammonium acetate, pH 7.4) and mobile phase (acetonitrile) as described.[41],[42]

| Structure (SMILES) | Papp [1] | solubility [2] | CHI-logDpH7.4 [3] |
| --- | --- | --- | --- |
| COc1ccc(-c2noc(C(=O)NCCc3ccc(C(=O)N4CC5(COC5)C4)cc3)n2)cc1OC [compound 18, N-(4-(2-Oxa-6-azaspiro[3.3]heptane-6-carbonyl)phenethyl)-3-(3,4-dimethoxyphenyl)-1,2,4-oxadiazole-5-carboxamide] | 2.6 ×10⁻⁶ cm/s | 12 µM (≈ 5.74 µg/mL) | 1.8 |
| COc1ccc(-c2noc(C(=O)NC(C#N)Cc3ccc(C(=O)N4CC(OC)C4)cc3)n2)cc1OC (stereo not drawn) [compound 34, N-(1-Cyano-2-(4-(3-methoxyazetidine-1-carbonyl)phenyl)ethyl)-3-(3,4-dimethoxyphenyl)-1,2,4-oxadiazole-5-carboxamide] | 1.5 ×10⁻⁶ cm/s | 164 µM (≈ 80.6 µg/mL) | 2.2 |
| COc1ccc(-c2noc(C(=O)NCCc3ccc(C(=O)N4CC(OC)C4)cc3)n2)cc1OCC1CC1 [compound 77, 3-[3-(Cyclopropylmethoxy)-4-methoxyphenyl]-N-[2-[4-(3-methoxyazetidine-1-carbonyl)phenyl]ethyl]-1,2,4-oxadiazole-5-carboxamide] | 3.6 ×10⁻⁶ cm/s | 2 µM (≈ 1.01 µg/mL) | 2.9 |
| COc1ccc(-c2nnc(C(=O)NCCc3ccc(C(=O)N4CC(OC)C4)cc3)o2)cc1OC [compound 104, 5-(3,4-Dimethoxyphenyl)-N-(4-(3-methoxyazetidine-1-carbonyl)phenethyl)-1,3,4-oxadiazole-2-carboxamide] | 0.8 ×10⁻⁶ cm/s | 11 µM (≈ 5.13 µg/mL) | 1.7 |
